Experimental data taken from US20240123022A1, “A STABLE ANTI-ANGIOGENIC AND ANTI-INFLAMMATORY PHARMACEUTICAL FORMULATION AND PHARMACEUTICAL COMBINATION FOR TREATMENT AND PREVENTION OF PSORIASIS” (priority 2021, published 2024).

Assay: Stability of IS217 API, long-term condition −20 ± 5° C.
Format: physicochemical
Conditions: for Appearance, change / Assessment of container closure system, change / Clarity of solution, change / Color of Solution, change / Color, change / Odor, change: long-term −20 ± 5° C.
Method: The purpose of stability testing is to provide evidence on how the quality of a drug substance or drug product varies with time under the influence of a variety of environmental factors such as temperature, humidity, etc. and to establish a re-test period for the drug substance or a shelf life for the drug product and recommended storage conditions. The study was conducted according to the WHO and Schedule-Y guidelines.
The drug substance is a lyophilized white fluffy powder, and it was filled at sterile condition in glass injection vial which has airlock-rubber capping. This container closure system is the same as or simulates the packaging proposed for storage and distribution.
This study has included testing of those attributes of the drug substance that are susceptible to change during storage and are likely to influence quality, safety and/or efficacy. The testing was covered, as appropriate, the physical and chemical attributes.
The following test attributes have been selected according to above said guidelines. • Appearance; odour; colour; colour of solution (when the drug substance is soluble in solvent); clarity of solution; degradation and assessment of container closure system
Testing frequency for long-term studies have been designed as per schedule Y. […]
The studies were conducted under appropriate storage conditions (with appropriate tolerances) that test drug substance thermal stability and its sensitivity to moisture. The drug substance is intended to store for 24 months. Accordingly, long term stability studies were done for 24 months. The details of the storage conditions have been furnished hereunder.
23.4: Long term stability study results Name of the Product: IS217; Batch size: 200 m·mol; Storage Conditions: −20±5° C.

H-FAKKFAKKFK-OH [IS217, H-Phe-Ala-Lys-Lys-Phe-Ala-Lys-Lys-Phe-Lys-OH]
stability of IS217 API (6 months at long term stability condition −20 ± 5° C.): stable
Appearance, change (1st month): No change
Assessment of container closure system, change (1st month): No change
Clarity of solution, change (1st month): No change
Color of Solution, change (1st month): No change
Color, change (1st month): No change
Odor, change (1st month): No change
Appearance, change (2nd month): No change
Assessment of container closure system, change (2nd month): No change
Clarity of solution, change (2nd month): No change
Color of Solution, change (2nd month): No change
Color, change (2nd month): No change
Odor, change (2nd month): No change
Appearance, change (3rd month): No change
Assessment of container closure system, change (3rd month): No change
Clarity of solution, change (3rd month): No change
Color of Solution, change (3rd month): No change
Color, change (3rd month): No change
Odor, change (3rd month): No change
Appearance, change (6th month): No change
Assessment of container closure system, change (6th month): No change
Clarity of solution, change (6th month): No change
Color of Solution, change (6th month): No change
Color, change (6th month): No change
Odor, change (6th month): No change
API calculated on the anhydrous basis (OAB) (−20 ± 5° C., 1 M): 98.98%
Related substances (By HPLC), Any Max. Impurity (−20 ± 5° C., 1 M): 0.64%
Related substances (By HPLC), Total Impurity (−20 ± 5° C., 1 M): 0.85%
Solubility (Soluble in water) (−20 ± 5° C., 1 M): Complies
Water Content (By Karl Fischer-Titrator) (−20 ± 5° C., 1 M): 4.89% w/w
API calculated on the anhydrous basis (OAB) (−20 ± 5° C., 2 M): 99.14%
Related substances (By HPLC), Any Max. Impurity (−20 ± 5° C., 2 M): 0.64%
Related substances (By HPLC), Total Impurity (−20 ± 5° C., 2 M): 0.85%
Solubility (Soluble in water) (−20 ± 5° C., 2 M): Complies
Water Content (By Karl Fischer-Titrator) (−20 ± 5° C., 2 M): 4.83% w/w
API calculated on the anhydrous basis (OAB) (−20 ± 5° C., 3 M): 99.15%
Related substances (By HPLC), Any Max. Impurity (−20 ± 5° C., 3 M): 0.72%
Related substances (By HPLC), Total Impurity (−20 ± 5° C., 3 M): 0.85%
Solubility (Soluble in water) (−20 ± 5° C., 3 M): Complies
Water Content (By Karl Fischer-Titrator) (−20 ± 5° C., 3 M): 4.52% w/w
API calculated on the anhydrous basis (OAB) (−20 ± 5° C., 6 M): 99.40%
Related substances (By HPLC), Any Max. Impurity (−20 ± 5° C., 6 M): 0.35%
Related substances (By HPLC), Total Impurity (−20 ± 5° C., 6 M): 0.61%
Solubility (Soluble in water) (−20 ± 5° C., 6 M): Complies
Water Content (By Karl Fischer-Titrator) (−20 ± 5° C., 6 M): 4.99% w/w
API calculated on the anhydrous basis (OAB) (−20 ± 5° C., Initial): 99.28%
Related substances (By HPLC), Any Max. Impurity (−20 ± 5° C., Initial): 0.60%
Related substances (By HPLC), Total Impurity (−20 ± 5° C., Initial): 0.72%
Remark (−20 ± 5° C., Initial): Complies
Solubility (Soluble in water) (−20 ± 5° C., Initial): Complies
Water Content (By Karl Fischer-Titrator) (−20 ± 5° C., Initial): 4.66% w/w
